Measurements taken from ChEMBL document CHEMBL1158897, “New alkaloids from Cephalotaxus fortunei” (J Nat Prod, 2003).
Converted amounts (≈) assume the structure as drawn.

Test system: KB
Experiment: Cytotoxicity against human KB cells after 72 hrs by neutral red staining
Type: functional, cell-based

| Compound | IC50 [µg/mL] |
| --- | --- |
| COC1=C[C@]23CCC[N@@+]2([O-])CCc2cc4c(cc2[C@@H]3[C@@H]1O)OCO4 | 14 (≈ 42.2 µM) |
| COC1=C[C@]23CCC[N@@+]2([O-])C[C@H](O)c2cc4c(cc2[C@@H]3[C@@H]1O)OCO4 | 31 (≈ 89.2 µM) |
| COC1=C[C@]23CCC[N@+]2([O-])CCc2cc4c(cc2[C@@H]3[C@@H]1O)OCO4 | 30 (≈ 90.5 µM) |
| COC1=C2c3cc4c(cc3CCN3CCC[C@]23CC1O)OCO4 (some centres undefined) [ISOCEPHALOTAXINE] | 15 (≈ 47.6 µM) |
